Bridge positions count the residues as written; N and C are the ends. Peptide text beside a SMILES is read from it.
Experiments:
[1] = molecular target: T1, mouse RNF43 (Mus musculus, UniProt Q5NCP0); experiment: SPR binding of DCPs to mouse RNF43; conditions: independently performed at least three times
T1 sequence (Q5NCP0 24-197 limits assumed): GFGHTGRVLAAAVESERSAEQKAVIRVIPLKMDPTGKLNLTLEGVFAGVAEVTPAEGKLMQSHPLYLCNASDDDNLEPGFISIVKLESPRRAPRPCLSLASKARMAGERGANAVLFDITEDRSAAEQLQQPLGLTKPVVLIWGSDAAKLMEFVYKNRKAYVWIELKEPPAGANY
Procedure: (§1) SPR measurement was carried out using a Biacore S200 (Cytiva) instrument, with PBS-T (PBS with 0.05% Tween 20, pH 7.4) as the buffer. Biotinylated protein was captured on three sensor channels of Series S SA Sensors (Cytiva). The sensors were then blocked with 0.1 mg/mL biotin. DCPs were injected onto the sensor in a 3× concentration series. The data were double-referenced by subtracting the signal from a sensor channel coated with biotin only and the signal from a buffer injection. For data analysis, binding data were fitted using the manufacturer’s software. ,

[2] = molecular target: T2, deglycosylated RNF43 (Homo sapiens, UniProt Q68DV7); experiment: SPR binding to deglycosylated RNF43; conditions: biotinylated RNF43 treated with Deglycosylation Mix II, fitted data of representative sensorgram
T2 construct: ECD of the human RNF43 protein was incubated with EZ-link-NHS-PEG4-biotin; biotin (chemical label, NHS-PEG4-biotin)
T2 sequence (Q68DV7 24-197): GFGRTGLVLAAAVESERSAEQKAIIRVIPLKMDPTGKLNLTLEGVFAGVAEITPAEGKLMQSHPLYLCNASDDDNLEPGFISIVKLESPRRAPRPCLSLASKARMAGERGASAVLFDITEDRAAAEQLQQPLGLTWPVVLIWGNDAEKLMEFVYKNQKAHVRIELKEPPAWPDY
Procedure: as §1
Protein deglycosylation was performed on a small scale using Deglycosylation Mix II (P6044, NEB), according to the manufacturer’s instructions. Briefly, the biotinylated RNF43 was incubated with Deglycosylation Mix II for 1 h at RT. Then the reaction mixture was transferred to 37 °C and further incubated overnight. Following incubation, the reaction mixture was analyzed by mobility shift on SDS-PAGE gels. After dialysis, the protein was then used for further applications.

[3] = molecular target: T3, human RNF43 (Homo sapiens, UniProt Q68DV7); experiment: SPR binding of DCPs to immobilized human RNF43 ECD; conditions: SPR, Biacore S200, biotinylated human RNF43 captured on SA sensor, DCP injected, PBS-T pH 7.4; independently performed at least three times; NB = no binding
T3 construct: ECD of the human RNF43 protein was incubated with EZ-link-NHS-PEG4-biotin; biotin (chemical label, NHS-PEG4-biotin on amines, 1-2 per protein)
T3 sequence (Q68DV7 24-197 limits assumed): T2 sequence (Q68DV7 24-197)
Procedure: ECD of the human RNF43 protein was incubated with EZ-link-NHS-PEG4-biotin (Thermo Fisher, 1:1, 50 μM) for 1 h at room temperature (RT). The reaction was quenched by addition of 10 mM Glycine, followed by dialysis into phosphate buffered saline (PBS) overnight at 4 °C. Finally, the biotinylated protein was analyzed using LC-MS to ensure that each protein is labeled with 1–2 biotin molecules. ,
as §1

CC[C@H](C)[C@H](NC(=O)[C@@H]1CSSC[C@H](NC(=O)[C@@H](NC(=O)[C@H](Cc2c[nH]cn2)NC(=O)[C@H](CO)NC(=O)[C@H](Cc2ccc(O)cc2)NC(=O)[C@H](CC(=O)O)NC(=O)[C@H](Cc2c[nH]cn2)NC(=O)[C@@H]2CSSC[C@H](NC(=O)[C@H](CCC(N)=O)NC(=O)[C@@H](N)CCC(=O)O)C(=O)N[C@@H]([C@@H](C)O)C(=O)N[C@@H](CO)C(=O)N[C@@H]([C@@H](C)O)C(=O)N[C@@H](CCC(N)=O)C(=O)N[C@@H](CC(=O)O)C(=O)N[C@@H](CC(C)C)C(=O)N2)C(C)C)C(=O)N[C@H]2CSSC[C@H](NC(=O)[C@H](CC(=O)O)NC(=O)[C@H](CC(C)C)NC(=O)[C@@H]3CCCN3C(=O)[C@H](Cc3c[nH]c4ccccc34)NC2=O)C(=O)N[C@@H](CCCNC(=N)N)C(=O)N[C@@H](Cc2c[nH]c3ccccc23)C(=O)N[C@@H](C)C(=O)N[C@@H](C(C)C)C(=O)N[C@@H](CCCCN)C(=O)N[C@@H](Cc2ccc(O)cc2)C(=O)N[C@@H](CCC(N)=O)C(=O)N[C@@H](Cc2c[nH]c3ccccc23)C(=O)N[C@@H](Cc2ccccc2)C(=O)N[C@@H](Cc2c[nH]c3ccccc23)C(=O)N[C@@H](CC(=O)O)C(=O)N1)C(=O)NCC(=O)O [GUR-1.6.12.2] (H-EQCTSTQDLCHDYSHVCCWPLDCRWAVKYQWFWDCIG-OH; disulfide 3-10, 17-35, 18-23)
Kd [1]: 2.1 ± 0.2 nM | KD against deglycosylated RNF43 [2]: remained unchanged | KD (h, nM) [3]: single-digit nanomolar
